What all share (assay type): biochemical, Acremonium thermophilum
Test [1] concerns T1, AtBG3.
T1 construct: secreted enzyme, heterologously expressed in Trichoderma reesei lacking four major cellulases; gel filtration; 101 kDa
The experiment in a line: glucose release, hexokinase/G6PDH assay; fit with transglycosylation. The note with it: 25 °C, pH 5.0, 50 mM sodium acetate; hydrolysis constant, substrate inhibition by transglycosylation; read-out: KM(h)(mM)^a / AtBG3.

Test [2] concerns the target T1, AtBG3. The experiment in a line: inhibition of MUG hydrolysis, fluorescence. The note with it: 25 °C, pH 5.0, 2.5 μM MUG; IC50 at [S] << KM taken as Ki; competitive inhibition assumed; read-out: AtBG3^b. An excerpt:
inhibition of MUG hydrolysis, fluorescence on AtBG3

In test [3] the test system is T1, AtBG3. In words: pNP release, absorbance […] nm; fit with transglycosylation. The note with it: 25 °C, pH 5.0, 50 mM sodium acetate; hydrolysis constant, substrate inhibition by transglycosylation; read-out: KM(h).

The source of these data is paper PMC3726394, “Selecting β-glucosidases to support cellulases in cellulose saccharification” (Biotechnology for Biofuels, 2013).

In the case of `OC[C@H]1O[C@@H](O[C@H]2[C@H](O)[C@@H](O)C(O)O[C@@H]2CO)[C@H](O)[C@@H](O)[C@@H]1O` (stereo partly drawn) [cellobiose], in the test on AtBG3 [1], the Km was 0.29 ± 0.07 mM. In the case of `OC[C@H]1OC(O)[C@H](O)[C@@H](O)[C@@H]1O` (stereo partly drawn) [glucose], at AtBG3 [2], the Ki is 220 µM. For `O=[N+]([O-])c1ccc(O[C@@H]2O[C@H](CO)[C@@H](O)[C@H](O)[C@H]2O)cc1` [para-nitrophenyl-β-glucoside], in the test with AtBG3 [3], the Km is 95 ± 3 µM.
